Reference: patent publication US6172102A, “Pyrrole derivatives and medicinal composition” (Nippon Shinyaku Co., Ltd., priority 1995, dated 2001)

System: urinary bladder
Assay: Cystometrography (rats): bladder capacity after intraduodenal administration
Type: in vivo
Details: female SD rats, urethane anesthesia, max of 0.5, 1, 2, 3 h, mean
Procedure: Cystometrography is a method for ascertaining the relation between intravesical pressure and bladder capacity and provides information on the time course of condition of the urinary bladder from urine filling to micturition, the possible involuntary contraction of the urinary bladder, and the contractility of the detrusor muscle during micturition.
The experiment was performed using 9 to 13-weeks old female SD rats in groups of 3-5. After a median incision was made in the abdominal region under urethane anesthesia, a polyethylene indwelling cannula was inserted into the urinary bladder dome through the apex of the urinary bladder and fixed. The other end of the cannula was connected to a T-tube for infusion of saline via one branch and changes in intravesical pressure were recorded via the other branch. When warmed saline was continuously infused into the urinary bladder at a constant rate, the urinary bladder was distended and, when the pressure reached a threshold, the urinary bladder underwent rapid contractions and at the same time a micturition was induced. This procedure was repeated until the volume of saline from the start of infusion to the threshold intravesical pressure (bladder capacity) became steady giving approximately constant values in at least two consecutive determinations. Then, the test compound was administered into the duodenum. The bladder capacity was measured immediately before administration of the test compound and 0.5, 1, 2, and 3 hours after administration. The maximum increase rate (%) in bladder capacity was calculated by means of the following equation.
Maximum increase rate in bladder capacity=[(A-B)/B]×100
where B represents the bladder capacity value immediately before administration of the test compound and A represents the maximum bladder capacity at 0.5, 1, 2, and 3 hours after administration of the test compound. The data shown are mean values.

## Cc1c(-c2ccccc2F)[nH]c(N)c1C#N [compound 1, 2-Amino-3-cyano-4-methyl-5-(2-fluorophenyl)pyrrole]
3 mg/kg
  Maximum increase rate (%) in bladder capacity: 60.8%

## Cc1c(-c2cccnc2)[nH]c(N)c1C#N [compound 8, 2-Amino-3-cyano-4-methyl-5-(3-pyridyl)pyrrole]
30 mg/kg
  Maximum increase rate (%) in bladder capacity: 55.4%

## N#Cc1cc(-c2ccccc2)[nH]c1N [compound 15]
10 mg/kg
  Maximum increase rate (%) in bladder capacity: 53.8%

## N#Cc1cc(-c2ccc(F)cc2)[nH]c1N [compound 41]
10 mg/kg
  Maximum increase rate (%) in bladder capacity: 38.8%

## Cc1c(-c2ccccc2)[nH]c(N)c1C#N [R1, 2-Amino-3-cyano-4-methyl-5-phenylpyrrole, reference compound]
3 mg/kg
  Maximum increase rate (%) in bladder capacity: 63.6%

## CCCOC(C(=O)OC1CCN(C)CC1)(c1ccccc1)c1ccccc1 [Propiverine, propiverine, reference compound]
100 mg/kg
  Maximum increase rate (%) in bladder capacity: 42.0%

## Cc1c(-c2cc(F)ccc2F)[nH]c(N)c1C#N [compound 63, 2-Amino-3-cyano-4-methyl-5-(2,5-difluorophenyl)pyrrole]
3 mg/kg
  Maximum increase rate (%) in bladder capacity: 49.9%
